Where “and” joins values, the source holds several entries; their conditions need not be identical. Equal values may be shown once.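 In this assay, cells in 96-well plates receive the compound at five concentrations for 48 hours. Endpoints are linearly interpolated between the surrounding concentrations. Abbreviation: GI50, concentration required for 50% inhibition of growth. TGI: total growth inhibition.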
What was measured:
Test in all cases: NCI tumour cell line growth inhibition, 48 h
[1] = system: P388 leukemia
[2] = system: P388/ADR leukemia
[3] = system: HOP-18 NSCLC
[4] = system: DLD-1 colon
[5] = system: DMS 114 small cell lung
[6] = system: SN12K1 renal
[7] = system: DMS 273 small cell lung
[8] = system: SNB-78 CNS
[9] = system: LXFL 529 NSCLC

Row | Compound | TGI [1] | TGI [2] [µM] | GI50 [3] [µM] | TGI [3] | TGI [4] | TGI [5] | TGI [6] | TGI [7] | TGI [8] [µM] | GI50 [9] | TGI [9]
1 | Cc1c2cc[n+](C)cc2c(C)c2c1[nH]c1ccccc12 | 24.5 µM and 22.2 µM | > 77.4 | 5.47 | 21.3 µM and 32 µM | > 100 µM and 76.9 µM | 1880 nM and 1990 nM | 4.3 µM and 4.19 µM | 12.3 µM and 14.2 µM |  |  | 
2 | CC(NCCS(=O)(=O)O)C(=O)O (stereo not drawn) | > 100 µM | > 100 |  | > 100 µM | > 100 µM | > 100000 nM | > 100 µM | > 100 µM | > 100 |  | 
3 | Nc1nc(N)c2ncn(CC(CO)CC(c3ccccc3)P(=O)(O)O)c2n1 (stereo not drawn) |  |  |  | > 100 µM | > 100 µM | > 100000 nM |  | > 100 µM | > 100 | > 100 µM and 13.8 µM | > 100 µM and 99.3 µM

From PubChem BioAssay (NCI)
